Measured values as given in patent US20240374487A1, “ANTI-AGING AGENT, COSMETIC PRODUCT, WET TOWEL, AND HYGIENE PRODUCT” (VB JAPAN TECHNOLOGY CO., LTD., priority 2021, published 2024).

Key:
[1] = test system: AGE receptor (FEEL-1, FEEL-2, CD-36, AGE-R1, AGE-R2, AGE-R3 and RAGE); assay: mRNA levels of AGE receptors by qRT-PCR in normal human dermal fibroblasts; assay type: cell-based; settings: VB alone, no AGE, 37° C. 4 hours, compared with untreated group
Description: (§1) Normal human dermal fibroblasts (NHDF), juvenile foreskin (C-12300, PromoCell) were cultured in a dedicated medium, Fibroblast Growth Medium (C-23010, PromoCell) at 37° C. in a 5% CO2 incubator.
(§2) First, as a co-existence group of VB and AGE, normal human dermal fibroblasts were treated with AGE (100 μg/mL), and the above VB2 (concentration after dilution: 115 μg/ml) and VB3 (concentration after dilution: 1000 μg/mL) diluted to an accurate 1/1000 amount were each added and retained at 37° C. for 4 hours. […]
(§3) Then, total RNA was extracted from the cells using Trizol reagent (Ambion), and mRNA levels of AGE receptor (FEEL-1, FEEL-2, CD-36, AGE-R1, AGE-R2, AGE-R3 and RAGE) and heat shock protein (Hsp104, gp96, Hsp90, Hsp70, Hsp60, and Hsp32) were measured by qRT-PCR (one-step quantitative reverse transcription-polymerase chain reaction) method. […]
(§4) The qRT-PCR method used for the measurement of AGE receptor, heat shock protein, aquaporin, hyaluronic acid, and Elastin will be described. In the qRT-PCR method, 500 ng of the obtained total RNA was used as a template for PCR, and one step RT-PCR capable of performing CDNA synthesis by a reverse transcription reaction (Reverse Transcriptase; RT reaction) and quantitative PCR in one test tube was performed using Luna Universal One-Step qRT-PCR Kit. […]

FEEL-1 = FEEL-1 mRNA level by qRT-PCR in AGE-treated fibroblasts; assay type: cell-based, human; settings: co-existence with AGE 100 μg/mL, 4 hours, compared with AGE single stimulation group
Description: as §1, §2, §3, §4

FEEL-2 = FEEL-2 mRNA level by qRT-PCR in AGE-treated fibroblasts; assay type: cell-based, human; settings: co-existence with AGE 100 μg/mL, 4 hours, compared with AGE single stimulation group
Description: as §1, §2, §3, §4

RAGE = RAGE mRNA level by qRT-PCR in AGE-treated fibroblasts; assay type: cell-based, human; settings: co-existence with AGE 100 μg/mL, 4 hours, compared with AGE single stimulation group
Description: as §1, §2, §3, §4

[2] = test system: heat shock protein (Hsp104, gp96, Hsp90, Hsp70, Hsp60, and Hsp32); assay: mRNA levels of heat shock proteins by qRT-PCR in fibroblasts; assay type: cell-based, human; settings: 4 hours
Description: as §1
First, as a co-existence group of VB and AGE, normal human dermal fibroblasts were treated with AGE (100 μg/mL), and the above VB2 (concentration after dilution: 115 μg/ml) and VB3 (concentration after dilution: 1000 μg/mL) diluted to an accurate 1/1000 amount were each added and retained at 37° C. for 4 hours.
In addition, as the VB single stimulation group, normal human dermal fibroblasts were not treated with AGE, and the above VB2 and VB3 diluted to an accurate 1/1000 amount were each added and held at 37° C. for 4 hours. Furthermore, as the AGE single stimulation group, normal human dermal fibroblasts were treated with AGE and kept at 37° C. for 4 hours without addition of VB2 or VB3. In addition, as an untreated group, normal human dermal fibroblasts were not treated with AGE, and were kept at 37° C. for 4 hours without adding VB2 or VB3.
Then, total RNA was extracted from the cells using Trizol reagent (Ambion), and mRNA levels of AGE receptor (FEEL-1, FEEL-2, CD-36, AGE-R1, AGE-R2, AGE-R3 and RAGE) and heat shock protein (Hsp104, gp96, Hsp90, Hsp70, Hsp60, and Hsp32) were measured by qRT-PCR (one-step quantitative reverse transcription-polymerase chain reaction) method.
The measurement results for AGE receptor are shown in FIG. 1, and the measurement results for heat shock protein are shown in FIG. 2. In FIG. 1 and FIG. 2, for the co-existence group of AGE and VB, samples to which VB2 and VB3 were added are indicated as VB2(+)AGE and VB3(+)AGE, respectively, and these values were shown in comparison with the AGE single stimulation group. In addition, for the VB single stimulation group, samples to which VB2 and VB3 were added were indicated as VB2 alone and VB3 alone, respectively, and these values were shown in comparison with the untreated group.
(§5) The qRT-PCR method used for the measurement of AGE receptor, heat shock protein, aquaporin, hyaluronic acid, and Elastin will be described. In the qRT-PCR method, 500 ng of the obtained total RNA was used as a template for PCR, and one step RT-PCR capable of performing CDNA synthesis by a reverse transcription reaction (Reverse Transcriptase; RT reaction) and quantitative PCR in one test tube was performed using Luna Universal One-Step qRT-PCR Kit.
As a PCR device, Thermal Cycler Dice Real Time System II manufactured by Takara was used. […]
(§6) The reaction was performed under the conditions of 1 cycle of 30 seconds at 95° C., and further cycles of 5 seconds at 95° C. and 30 seconds at 60° C. for 50 cycles. A variation in mRNA expression by 4 times or more (2 cycles as PCR reaction) was determined as a significant difference.

intracellular ROS [3] = assay: Intracellular ROS against AGE (DCF-DA fluorescence); assay type: cell-based, human; settings: AGE 100 μg/mL, 4 hours, FIG. 3
Description: as §1
Normal human dermal fibroblasts were treated with AGE (100 μg/mL) and maintained at 37° C. for 4 hours with the addition of VB2 and VB3, respectively. Here, VB2 and VB3 were added at concentrations of 1 μg/mL, 10 μg/mL, 100 μg/mL, and 300 μg/mL, respectively. In FIGS. 3 and 4, which are graphs showing the results, those to which VB2was added were denoted as “VB2-AGE”, and those to which VB3 was added were denoted as “VB3-AGE”.
As Control, measurement was also performed on normal human dermal fibroblasts which were not treated with AGE and were held at 37° C. for 4 hours without addition of VB2 or VB3, and as an AGE single stimulation group, measurement was also performed on normal human dermal fibroblasts which were treated with AGE (100 μg/mL) and were held at 37° C. for 4 hours without addition of VB2 or VB3 (in FIGS. 3 and 4, it is denoted as “AGE”.).
Measurement of intracellular ROS was performed using fluorescence using dichlorofluorescin diacetate (DCF-DA; Invitrogen, Carlsbad, CA, USA). […] The intracellular ROS level was measured at an excitation wavelength of 525 nm using fluorescence intensity using the micro plate reader (SYNERGY/HT, BioTek, Japan).

[4] = test system: normal human dermal fibroblasts; assay: Cell viability under hydrogen peroxide oxidative stress (Cell counting-8 kit); assay type: cell-based; settings: for cell viability, trend: 1-300 μg/mL
Description: as §1
(§7) Normal human dermal fibroblasts were cultured for 2 hours in a culture solution to which 0.2 mM hydrogen peroxide was added, then washed off with PBS, and replaced with a normal medium to continue the cultivation. VB2 and VB3 were each added at any timing before or after hydrogen peroxide was added, and co-cultured for 4 hours. Thereafter, the cells or the culture solution were recovered.
In FIG. 5 which is a graph showing the results, a sample obtained by adding VB2 or VB3 after adding hydrogen peroxide was denoted as “H2O2-VB2” and “H2O2-VB3”, respectively, and a sample obtained by adding hydrogen peroxide after adding VB2 or VB3 was denoted as “VB2-H2O2” and “VB3-H2O2”, respectively.
Here, VB2 and VB3 were added at concentrations of 1 μg/mL, 10 μg/mL, 100 μg/mL, and 300 μg/mL, respectively.
The normal human dermal fibroblasts to which neither hydrogen peroxide nor VB2 nor VB3 was added were treated in the same manner as described above, and measured as Control. In addition, a sample to which VB2 or VB3 was not added (in FIG. 5, it is denoted as “H2O2”) was also treated in the same manner as described above, and measurement was performed.
The number of surviving cells in normal human dermal fibroblasts was measured using Cell counting −8 kit (DOJINDO: , Japan).

intracellular ROS [5] = assay: Intracellular ROS production against hydrogen peroxide (DCF-DA); assay type: cell-based, human
Description: Measurement of intracellular ROS was performed using fluorescence using dichlorofluorescin diacetate (DCF-DA; Invitrogen, Carlsbad, CA, USA). Specifically, cells were washed with PBS, and then incubated with 10 μM DCF-DA at 37° C. for 20 minutes. The intracellular ROS level was measured at an excitation wavelength of 525 nm using fluorescence intensity using the micro plate reader (SYNERGY/HT, BioTek, Japan).
as §7
According to the procedure described in “Measurement of Cell Viability” above, normal human dermal fibroblasts were treated and cultured (co-culture), and cells or the culture solution was recovered. The concentrations of VB2 and VB3 used and the notation of the samples in FIGS. 6 and 7, which are graphs showing the results, are also similar to the above “Measurement of Cell Viability”.
The measurement of intracellular ROS and the measurement of superoxide (SOD) were performed by the same methods as the methods described in “Measurement of Intracellular Reactive Oxygen (ROS) Production and Superoxide (SOD) against AGE” above, respectively.
FIGS. 6 and 7 show the results of each sample when Control is 100%.

SOD = SOD amount against hydrogen peroxide (SOD Assay Kit); assay type: cell-based, human; settings: added before and after 0.2 mM hydrogen peroxide, 1-300 μg/mL (H2O2 only 56% of Control)
Description: Superoxide (SOD) was measured using SOD Assay Kit (Cayman Chemical, Ann arbor, MI, USA). Cells that had been subjected to various treatments were incubated for 24 hours, and then a Lysis buffer was added, homogenized, and centrifuged. Then, 10 μL of each sample was mixed with 200 μL of xanthine oxidase at room temperature. After 30 minutes, the absorbance at 450 nm was measured.
as §7
According to the procedure described in “Measurement of Cell Viability” above, normal human dermal fibroblasts were treated and cultured (co-culture), and cells or the culture solution was recovered. The concentrations of VB2 and VB3 used and the notation of the samples in FIGS. 6 and 7, which are graphs showing the results, are also similar to the above “Measurement of Cell Viability”. […]

AQP-1 = AQP-1 mRNA level under oxidative stress (qRT-PCR); assay type: cell-based, human
Description: as §7
(§8) According to the procedure described in “Measurement of Cell Viability” above, normal human dermal fibroblasts were treated and cultured (co-culture), and cells or the culture solution was recovered. The notation of the sample in FIGS. 8 and 9, which are graphs showing the results, is also the same as in the “Measurement of Cell Viability” described above.
(§9) The measurement of aquaporin was performed for AQP-1 and AQP-3 by a qRT-PCR method, and the measurement result was obtained by a ΔΔCt method. […] The qRT-PCR method is s specifically described in “qRT-PCR method” described later.
as §5
(§10) As a PCR device, Thermal Cycler Dice Real Time System II manufactured by Takara was used. As one reaction system, 10 μL of Luna Universal One-Step Reaction Mix (2×), 1 μL of Luna WarmStart RT Enzyme Mix (20×), 0.8 μL of Forward primer (10 μM), 0.8 μL of Reverse primer, and Total RNA as a template for the PCR were used, and the total amount was adjusted to 20 μL in Nuclease-free Water.
as §6

AQP-3 = AQP-3 mRNA level under oxidative stress (qRT-PCR); assay type: cell-based, human
Description: as §7, §8, §9, §5, §10, §6

hyaluronic acid = assay: Hyaluronic acid secreted into culture supernatant (ELISA); assay type: cell-based, human
Description: as §7
(§11) According to the procedure described in “Measurement of Cell Viability” above, normal human dermal fibroblasts were treated and cultured (co-culture), and cells or the culture solution was recovered. The concentrations of VB2 and VB3 used and the notation of the samples in FIGS. 10 and 11, which are graphs showing the results, are also similar to the above “Measurement of Cell Viability”.
(§12) The production amounts of hyaluronic acid and Elastin were measured by an ELISA method. The results of measuring the amount of hyaluronic acid secreted from normal human dermal fibroblasts into the culture supernatant by the ELISA method are shown in FIG. 10, and the results of measuring the amount of intracellular Elastin production by the ELISA method are shown in FIG. 11.

Elastin = assay: Intracellular Elastin production (ELISA); assay type: cell-based, human
Description: as §7, §11, §12

[6] = added before or after 0.2 mM hydrogen peroxide
[7] = added in advance before oxidative stress, compared with addition after
[8] = added in advance before applying oxidative stress

mRNA expression of AGE receptor [1]: did not affect
Substance: K11H[(VO)3(SbW9O33)2] [VB2]
mRNA level of FEEL-1 (FEEL-1): significantly increased
mRNA level of FEEL-2 (FEEL-2): significantly increased
mRNA level of RAGE (RAGE): significantly increased
mRNA expression of Hsp ([2]; VB alone, no AGE, compared with untreated group): did not affect
mRNA levels of all Hsps other Hsp 90 among the examined Hsps ([2]; co-existence with AGE 100 μg/mL, compared with AGE single stimulation group): significantly increased
intracellular ROS under AGE stimulation (intracellular ROS [3]): suppress the increase in ROS
maximum cell viability ([4]; added after 0.2 mM hydrogen peroxide, 300 μg/mL, % of Control (H2O2 only 59%)): 76%
cell viability, trend ([4]; added after 0.2 mM hydrogen peroxide): increased in a concentration-dependent manner
cell viability, trend ([4]; added in advance before 0.2 mM hydrogen peroxide): significant increase in a concentration-dependent manner
ROS production (intracellular ROS [5]; added before and after 0.2 mM hydrogen peroxide, 1-300 μg/mL): suppressed in a concentration-dependent manner
ROS production (intracellular ROS [5]; treatment in advance before oxidative stress, compared with addition after): further suppressed
SOD amount (SOD): tended to be recovered in a concentration-dependent manner
mRNA level of AQP-1 (AQP-1; [6]): increased
AQP-1 mRNA repair ability, addition before vs after oxidative stress (AQP-1; [7]): tended to have a stronger repair ability
mRNA level of AQP-3 (AQP-3; [6]): increased
AQP-3 mRNA repair ability, addition before vs after oxidative stress (AQP-3; [7]): tended to have a stronger repair ability
amount of hyaluronic acid (hyaluronic acid; 0.2 mM hydrogen peroxide oxidative stress, culture supernatant): tended to be recovered
hyaluronic acid repair ability, addition before vs after oxidative stress (hyaluronic acid; [7]): tended to have a stronger repair ability
Elastin production amount (Elastin; added after application of oxidative stress (H2O2 only 56% of Control)): could not be recovered
Elastin production amount (Elastin; [8]): significant recovery
concentration at which Elastin production amount was significantly higher than Control (Elastin; [8]): ≥ 100 µg/mL
